Consider 1 substance from US9867799B2, “Diethyl-[6-(4-hydroxycarbamoyl-phenyl-carbamoyloxy-methyl)-naphthalen-2-yl-methyl]-ammonium chloride for use in the treatment of muscular dystrophy” (ITALFARMACO S.P.A., priority 2012, dated 2018).

The subject of one series is dogs, rats and monkeys. The experiment in a line: Repeated dose toxicity studies. The format is in vivo. Particulars: oral daily doses up to nine consecutive months. The method, then: To date more than 500 patients (including 29 children) have been treated with Givinostat. Repeated dose toxicity studies were carried out in dogs, rats and monkeys. Oral daily doses of the drug were administered up to nine consecutive months. […] The “no adverse effect levels” (NOAEL) ranged from 10 to 25 mg/kg/day depending on the animal species and the duration of treatment.

The next series relates to juvenile animals. The experiment in a line: Juvenile animal toxicity (development and reproductive performance). Particulars: 60 mg/kg/day. The format is in vivo.
A further series relates to mouse lymphoma. The experiment in a line: Mouse lymphoma assay in vitro (genotoxicity). The format is cell-based.
Series [1] can be described thus: Chromosomal aberration assay in vitro (genotoxicity). The format is cell-based.
The nature of series [2]: Micronucleus test in vivo (genotoxicity).
A short description of series [3]: UDS test in vivo (genotoxicity).
Series [4] deals with children with Systemic Onset Juvenile Idiopathic Arthritis. The conditions noted are these: 1.5 mg/kg/day for twelve weeks; cited from earlier work.

As to “diethyl-[6-(4-hydroxycarbamoyl-phenyl-carbamoyloxy-methyl)-naphthalen-2-yl-methyl]-ammonium chloride [Givinostat]”, in the series with dogs, rats and monkeys, the “tolerability / overt toxicity” value is “well tolerated with no overt toxicity at high doses”. Also, the “behavioural and physical development and reproductive performance of pups” value in the series on juvenile animals was “did not affect the behavioural and physical development and reproductive performance of pups”. In addition, the genotoxic effect result (in the series with mouse lymphoma; in series [1]; in series [2]; in series [3]) was “No genotoxic effect” throughout. The “ACR Pedi 30, 50 and 70 improvement” value in series [4] is recorded as “approximately 70%”. Further, the adverse effects result in series [4] was “only a limited number of mild or moderate but short lasting, adverse effects”.
